Experimental data taken from ChEMBL document CHEMBL1158127, “Bioactive compounds from the gorgonian Briareum polyanthes. Correction of the structures of four asbestinane-type diterpenes” (J Nat Prod, 2006).
≈ marks a conversion by molar mass, not a printed value. Calls of active or inactive are those of the source. The rule behind the calls is not given here.

Legend:
[1] = test system: Mycobacterium tuberculosis; test: Antituberculosis activity against Mycobacterium tuberculosis H37Rv at 128 ug/mL; type: functional
[2] = test system: Plasmodium falciparum; test: Antiplasmodial activity against chloroquine-resistant Plasmodium falciparum W2; type: functional, organism-based
[3] = test system: West Nile virus; test: Antiviral activity against West Nile virus; type: functional, organism-based
[4] = test system: Influenza B virus; test: Antiviral activity against Influenza B virus; type: functional, organism-based
[5] = test system: CCRF-CEM; test: Cytotoxicity against human CCRF-CEM cells; type: functional, cell-based
[6] = test system: Influenza A virus H3N2; test: Antiviral activity against Influenza A virus H3N2; type: functional, organism-based
[7] = test system: Hepatitis C virus; test: Antiviral activity against HCV; type: functional, organism-based; details: Hepacivirus hominis
[8] = test system: Influenza A virus; test: Antiviral activity against Influenza A virus H1N1; type: functional, organism-based
[9] = test system: Respiratory syncytial virus; test: Antiviral activity against RSV type A; type: functional, organism-based
[10] = test system: dengue virus type 2; test: Antiviral activity against Dengue virus type 2; type: functional, organism-based
[11] = test system: Venezuelan equine encephalitis virus; test: Antiviral activity against Venezuelan equine encephalomyelitis virus; type: functional, organism-based
[12] = test system: Hepatitis B virus; test: Antiviral activity against Hepatitis B virus; type: functional, organism-based
[13] = test system: Yellow fever virus; test: Antiviral activity against yellow fever virus; type: functional, organism-based
[14] = test system: Human gammaherpesvirus 4; test: Antiviral activity against Epstein-Barr virus; type: functional, organism-based

Row | SMILES | Activity [1] | IC50 [2] | Activity [3] | Activity [4] | IC50 [5] | Activity [6] | Activity [7] | Activity [8] | Activity [9] | Activity [10] | Activity [11] | Activity [12] | Activity [13] | IC50 [14]
1 | CCCC(=O)O[C@]1(C)CCC2[C@@H]3C4OC(C/C(C)=C\CC[C@]4(C)OC(=O)[C@@H]2C)[C@@H]31 (stereo partly drawn) [BRIARELLIN R] | 91% | 15 µg/mL (≈ 37.1 µM) | inactive | inactive | 8.9 µg/mL (≈ 22 µM) | inactive | inactive | inactive |  |  |  |  |  | 
2 | CO[C@@H]1CC[C@]2(C)OC[C@H](C)C3C[C@@H](C)[C@@H](OC(C)=O)[C@H]4C(C[C@@]1(C)O)OC2[C@@H]34 (stereo partly drawn) |  | ≥ 50 µg/mL |  |  |  |  |  |  |  |  |  |  |  | 
3 | CO[C@@H]1CC[C@]2(C)OC[C@H](C)C3C[C@@H](C)[C@@H](OC(C)=O)[C@H]4C(C[C@H]1C)OC2[C@@H]34 (stereo partly drawn) | inactive | 16 µg/mL (≈ 40.6 µM) | inactive | inactive |  | inactive | inactive | inactive | inactive | inactive | inactive | inactive | inactive | 
4 | C=C1CC2OC3[C@H]4C(C[C@@H](C)[C@@H](OC(C)=O)[C@@H]24)[C@@H](C)CO[C@@]3(C)CC[C@H]1OO (stereo partly drawn) | inactive | 13 µg/mL (≈ 33 µM) | inactive | inactive |  | inactive | inactive | inactive | inactive | inactive | inactive | inactive | inactive | 
5 | CC(=O)O[C@H]1[C@H]2C3/C=C(/C)[C@H](O)CC[C@]4(C)OC[C@H](C)C(C[C@H]1C)[C@@H]2C4O3 (stereo partly drawn) | inactive | 18 µg/mL (≈ 47.6 µM) | inactive | inactive |  | inactive | inactive | inactive | inactive | inactive | inactive | inactive | inactive | 
6 | C=C1CC2OC3[C@H]4C(C[C@@H](C)[C@@H](OC(C)=O)[C@@H]24)[C@@H](C)CO[C@@]3(C)CCC1=O (stereo partly drawn) | inactive | 9 µg/mL (≈ 23.9 µM) | inactive | inactive |  | inactive | inactive | inactive | inactive | inactive | inactive | inactive | inactive | 0.25 µg/mL (≈ 0.664 µM)
7 | CC(=O)O[C@H]1[C@H]2C3C[C@](C)(O)C(=O)CC[C@]4(C)OC[C@H](C)C(C[C@H]1C)[C@@H]2C4O3 (stereo partly drawn) |  | 18 µg/mL (≈ 45.6 µM) |  |  |  |  |  |  |  |  |  |  |  | 
8 | CCCC(=O)O[C@]1(C)CCC2[C@@H]3C(OC(CC(C)=O)[C@@H]31)[C@](C)(CCC(=O)O)OC(=O)[C@@H]2C (stereo partly drawn) |  | 20 µg/mL (≈ 44.2 µM) |  |  |  |  |  |  |  |  |  |  |  | 
9 | CCCC(=O)O[C@]1(C)CCC2[C@@H]3C4OC(C[C@](C)(O)[C@H](O)CC[C@]4(C)OC(=O)[C@@H]2C)[C@@H]31 (stereo partly drawn) [BRIARELLIN Q] | 43% | 3 µg/mL (≈ 6.84 µM) |  |  |  |  |  |  |  |  |  |  |  | 
10 | C=C1CC2OC3[C@H]4C(C[C@@H](C)[C@@H](OC(C)=O)[C@@H]24)[C@@H](C)CO[C@@]3(C)CC[C@H]1O (stereo partly drawn) | inactive | 13 µg/mL (≈ 34.3 µM) | inactive | inactive |  | inactive | inactive | inactive | inactive | inactive | inactive | inactive | inactive | 
11 | CC(=O)O[C@H]1[C@H]2C3CC(=O)CCC[C@]4(C)OC[C@H](C)C(C[C@H]1C)[C@@H]2C4O3 (stereo partly drawn) [NOR-ASBESTININ A] | inactive | 14 µg/mL (≈ 38.4 µM) | inactive | inactive |  | inactive | inactive | inactive | inactive | inactive | inactive | inactive | inactive | 
12 | C=C1CC2OC3[C@H]4C(C[C@@H](C)[C@@H](OC(C)=O)[C@@H]24)[C@@H](C)CO[C@@]3(C)CC[C@@H]1O (stereo partly drawn) | inactive | 17 µg/mL (≈ 44.9 µM) | inactive | inactive |  | inactive | inactive | inactive | inactive | inactive | inactive | inactive | inactive | 
